Work on `CCN1CCC(C(C(N)=O)(c2ccccc2)c2ccccc2)C1` (stereo unspecified) yielded a melting point of 141 to 142 °C. With `COc1cc2cc(C(=O)OC(C)(C)C)c(N)cc2cc1OCc1ccccc1` the melting point was 179 to 180 °C. In the case of `C[C@H]1C=CC2=C[C@@H](O)C[C@H](OC(=O)C(C)(C)Oc3ccccc3)[C@@H]2[C@H]1CC[C@@H]1C[C@@H](O)CC(=O)O1`, the melting point is reported as 155 to 158 °C. `CCOC(=O)Cn1c(=O)n(Cc2ccc(Cl)cc2)c(=O)c2ccccc21` gave a melting point of 137 °C. Work on `O=Cc1nn(-c2ccc(F)cc2)c2c1CCC2` yielded a melting point of 123 to 125 °C. With `Cc1nc(N2CCN(Cc3ccc(C(F)(F)F)cc3)C2=O)sc1-c1cnco1` the melting point was 160 to 162 °C. Work on `COc1cc2c(c3c1OC(C)(C)C3)C(c1cccc(N3CCN(C(=O)OC(C)(C)C)S3(=O)=O)c1)=NC(C)(C)C2` yielded a melting point of 157 to 159 °C. For `NC(=O)c1ccc(OCCN(Cc2ccccc2)CC(O)c2ccc(OCc3ccccc3)c(OCc3ccccc3)c2)cc1` (stereo unspecified), the melting point was 110 to 111 °C. `CCN(c1ccc(N2CCN(c3ccc(O)cc3)CC2)cc1)c1nccs1` gave a melting point of 215 °C. For `CC(=O)Oc1c(C)c(C)c(O)c(C(C)=NOCCOc2ccc(CC3SC(=O)NC3=O)cc2)c1C` (stereo unspecified), the melting point was 60 to 75 °C. Compound `O=C(O)C(Cc1ccccc1)Nc1cc(-c2ccc(Cc3ccccc3)cc2)ncn1` (stereo unspecified) has a melting point of 116 to 118 °C. In the case of `CN(C)C(=N)c1nn(-c2c(Cl)cc(C(F)(F)F)cc2Cl)c(N)c1S(=O)C(F)(F)F` (stereo unspecified), the melting point is reported as 123 to 126 °C. Work on `Cc1cc(COc2ccc(Oc3ccccc3)cc2)on1` yielded a melting point of 48 to 51 °C. With `N#CCOc1ccc(Cl)cc1-n1nncc1-c1cccc(C(F)(F)F)c1` the melting point was 145 to 146 °C. Compound `CCc1cc([N+](=O)[O-])c(N)cc1Cl` has a melting point of 100 to 101 °C. For `CC1(C)C(=O)C(c2ccc(S(C)(=O)=O)cc2)=C1c1ccc(S(C)(=O)=O)cc1`, the melting point was 212 °C. Work on `Cc1ccnc(C(O)c2cc(F)ccc2F)c1` (stereo unspecified) yielded a melting point of 105 to 106 °C. With `CCC(CC)Oc1cc(C)nc(Oc2c(C)cc(C(=O)O)cc2C)c1C` the melting point was 168 °C. For `Cc1cc(OC(=O)N(C)C)nc(C(Cl)(Cl)Cl)n1`, the melting point was 83.5 to 84.5 °C. In the case of `N#CCC(c1ccccn1)c1cc(N)cc2c1OCC2` (stereo unspecified), the melting point is reported as 143 to 144 °C. With `CCCCN1C(=O)NC(=C(C)C)C1=O` the melting point was 130 °C. `OCc1ccc2cccc3c2c1-c1ccccc1-3` showed a melting point of 147 to 185 °C. Work on `COCc1c(C(=O)c2ccccc2)ncc2[nH]c3ccc(Oc4ccc(Br)cn4)cc3c12` yielded a melting point of 193 to 194 °C. With `O=C1C(=C(O)C(F)(F)F)CCc2ccccc21` the melting point was 48 to 49 °C. `CC(=O)Nc1cccc(-c2ccc(OC[C@H](O)CCc3cccnc3)cc2)c1` showed a melting point of 110 to 113 °C. Compound `O=c1ncc(Cl)cn1CC(O)CCl` (stereo unspecified) has a melting point of 159 to 162 °C. With `N#CC(c1ccc(Cl)cc1)c1ccc(-n2ncc(=O)[nH]c2=O)cc1Cl` (stereo unspecified) the melting point was 197 °C. For `CCOC(=O)N1Cc2cccc3c2c(cn3C)C1`, the melting point was 76 to 78 °C. `CCN(CC)CCOC1c2ccccc2C(=O)N1c1ccccc1` (stereo unspecified) gave a melting point of 146 to 147 °C. `O=C(CCCCl)NC1c2ccccc2CS(=O)(=O)c2ccccc21` (stereo unspecified) showed a melting point of 215 to 227 °C. In the case of `O=c1c(Cc2ccncc2)c(-c2ccc(Cl)cc2)[nH]c2ccccc12`, the melting point is reported as 232 to 234 °C. `CC(O)c1cc(F)ccc1Oc1nc2ccc(NC(=O)Nc3cccc([N+](=O)[O-])c3)cc2cc1Cc1ccccc1` (stereo unspecified) showed a melting point of 217 to 219 °C. `COc1cccc(CO)c1C(O)c1ccccn1` (stereo unspecified) gave a melting point of 102 to 104 °C. In the case of `Cc1c(Br)c(=O)c(-c2ccc(Cl)cc2)c(C)n1C`, the melting point is reported as 264 to 266 °C. For `Nc1ccc(S(=O)(=O)c2cc(-c3ccc4ccccc4c3)nc(N3CCCC3)c2)cc1`, the melting point was 244 to 246 °C. Compound `Cc1noc([C@@H](Cc2ccccc2)NC(=O)[C@@H](Cc2ccc3ccccc3c2)NC(=O)C2CCN(C(=O)OC(C)(C)C)CC2)n1` has a melting point of 152 to 155 °C. With `CC(C)=CCOc1ccc(C(=O)C=Cc2c[nH]c3ccccc23)c(O)c1` the melting point was 228 to 230 °C. `c1ccc2c(c1)nnn2C(n1nnc2ccccc21)n1nnc2ccccc21` gave a melting point of 194 to 195 °C. `COC(=O)c1cccc2c1c(S(=O)(=O)NC(C)(C)C)nn2C` gave a melting point of 189 to 190 °C. Work on `CCC(CC)Nc1cc(C(=O)O)ccc1N1C(=O)CCC1(CO)CO` yielded a melting point of 220 to 221 °C. With `C=C1N(C2CCCCC2)C(=O)OC12CCN(CCC=C(c1ccc(F)cc1)c1ccc(F)cc1)CC2` the melting point was 145 to 146 °C. `CSc1ccc(-c2cc(C(F)F)nn2-c2ccc(S(N)(=O)=O)cc2)cc1` showed a melting point of 157 to 158 °C. `COC(=O)c1ccc2cc(S)ccc2c1` gave a melting point of 150 to 151 °C. `Cc1csc(C(=O)c2[nH]c3cc(Cl)ccc3c2CC(=O)O)n1` gave a melting point of 239 to 240 °C. `COc1c(C)cc(C(=O)O)cc1-c1ccccc1` showed a melting point of 165 to 168 °C. Work on `O=C1C(=O)c2ccccc2C2=C1SCC1(CCN(Cc3ccccc3)CC1)O2` yielded a melting point of 170 to 172 °C. For `COc1ccc(S(=O)(=O)Nc2ccccc2NC(C)=O)cc1`, the melting point was 160 to 161 °C. In the case of `O=C(CCN1CCN(c2ccccc2)CC1)NCC(=O)c1ccccc1`, the melting point is reported as 126 °C. Compound `Cc1nn(C)c(C)c1S(=O)(=O)n1c(CCCC(=O)O)cc2cc(Cl)ccc21` has a melting point of 142 to 145 °C. `NS(=O)(=O)NC[C@H]1COc2cc(Cl)c(Cl)cc2O1` showed a melting point of 119 to 121 °C. `CC(C)(C)c1ccc(NC(=O)N2CCC3(CC2)CC(CCc2ccccc2)=NO3)cc1` gave a melting point of 153 to 154 °C. With `COC(=O)Nc1nc2cc(C(=NO)c3ccc(F)cc3)ccc2[nH]1` the melting point was > 315 °C. `COc1ccc(C(=O)NCc2ccc(Br)cc2F)c(OCC(=O)O)c1` gave a melting point of 203 to 204 °C. In the case of `O=C1CN(C/C=C/c2ccc(Cl)cc2)CCN1c1cc(F)ccc1[N+](=O)[O-]`, the melting point is reported as 57 °C. Compound `CC[C@H](C)[C@H](Nc1nc(C(=O)c2ccccc2)ns1)C(=O)N1CCC[C@H]1C(=O)O` has a melting point of 132 to 134 °C. `O=C1Cc2cc3c(cc2CCN1Cc1ccccc1)OCO3` gave a melting point of 141 to 142 °C. `O=C(O)CC=C(c1ccccc1)c1ccccc1` gave a melting point of 109 to 111 °C. Compound `CCc1nc2c(cnn2CC)c(NC2CCOCC2)c1CNC(=O)c1cccc(C(=O)NCc2ccc(F)c(-c3cccc(CN4CCNC(=O)C4)c3)c2)c1` has a melting point of 147 to 150 °C. With `CCOc1ccc(-c2nc(O)c(-c3ccccc3)s2)cc1` the melting point was 214 to 216 °C. Work on `CCCCCCCc1ccc(C(=O)c2cccc(C(=O)O)c2)cc1` yielded a melting point of 124 to 126 °C. `CC(=O)c1ccc(C2=C(c3ccc(S(C)(=O)=O)cc3)OC(C)(C)C2=O)cc1` gave a melting point of 164 to 167 °C. Work on `C[C@H]1N(C(=O)c2ccc(C(F)(F)F)cc2)CC(=O)O[C@@]1(Cn1cncn1)c1ccc(C(F)(F)F)cc1` (relative stereo) yielded a melting point of 189 to 190 °C. `C=CCON=C(CCC)C1=C(O)CC(c2ccc(C(=O)SCC)cc2)CC1=O` (stereo unspecified) gave a melting point of 72 to 75 °C. With `CC(Br)C(=O)c1ccc2c(c1)C(C)NC(=O)N2` (stereo unspecified) the melting point was 153 to 156 °C. Work on `O=C(Nc1ccc(Cl)c(C(F)(F)F)c1)Oc1ccc2c(c1)CCCN2Cc1ccccc1` yielded a melting point of 151 °C. For `CCOCCOc1c(C)cc(Oc2ccc3c(c2)C=C(C(=O)O)CCS3(=O)=O)cc1C`, the melting point was 149 to 153 °C. `Cc1nn(CCc2ccccc2)cc1C(=O)Nc1ccc(N2CCC(N3CCOCC3)CC2)c(C#N)c1` gave a melting point of 188 °C. `OC1(c2ccc(Br)cc2)CCN(CCCc2noc3cc(F)ccc23)CC1` gave a melting point of 138 to 145 °C. For `CC(C)(C)OC(=O)N1CCC(c2nc3ccc(-c4ccc(S(C)(=O)=O)cc4F)cc3o2)CC1`, the melting point was 174 to 178 °C. With `CN(C)C1CCCN(C(=O)c2ccc(-c3[nH]nc4c3C(=O)c3c(NC(=O)NN5CCOCC5)cccc3-4)s2)C1` (stereo unspecified) the melting point was > 300 °C. Compound `CN1CCCC(Cn2nc(-c3c(-c4ccccc4)nn4ccccc34)ccc2=O)C1` (stereo unspecified) has a melting point of 159 to 160 °C. `CCCN(CCC)c1c(CC)nn2c(-c3ccc(OC)cc3C)cccc12` gave a melting point of 76 to 79 °C. `CCN(CC)C(=O)c1ccc(-c2ccc(-c3ccccc3)c(-c3ccc4c(c3)C(C)(C)CCC4(C)C)c2)cc1` showed a melting point of 113 °C. `CCn1ncc2c(NCC34CC5CC(CC(C5)C3)C4)c3ccccc3nc21` showed a melting point of 310 °C. `COC(=O)[C@H](CC(C)C)NC(=O)CNC(=O)[C@H](Cc1ccc(O)cc1)NC(=O)[C@H](CO)NC(=O)OCc1ccccc1` showed a melting point of 166 to 167 °C. `COc1cc(/C=C/C(=O)c2ccc(NS(C)(=O)=O)cc2)cc(-c2cccs2)c1OC` showed a melting point of 71 to 75 °C. Compound `Cc1ccc(NC(=O)c2cccc(C(F)(F)F)c2)cc1-c1ccc2ncncc2c1` has a melting point of 155 to 156 °C. With `O=C(CCl)Nc1ccc2c(c1NC(=O)c1cccc(F)c1)C(=O)c1ccccc1C2=O` the melting point was 197 to 198 °C. For `Cc1cc(NC(=O)CN(CC(=O)O)CC(=O)O)ccc1Br`, the melting point was 206 to 209 °C. With `CCC1=Nc2c(C)nn(C)c2C2=NCC(C)N12` (stereo unspecified) the melting point was 105 to 107 °C. With `CCOC(=O)c1sc(-c2ccc(C#N)cc2)nc1COC(C)=O` the melting point was 127 °C. `FC(COC1CCC(Nc2ncnc3[nH]ncc23)CC1F)c1ccccc1` (stereo unspecified) gave a melting point of 204 to 205 °C. `C#Cc1cc(Nc2ncnc3cnc(F)cc23)ccc1Cl` gave a melting point of 218 to 222 °C. For `Cc1cccc(OCC(=S)NCCNC(=S)Nc2ccccc2)c1C`, the melting point was 112 to 113 °C. With `CCC(C(CC(=O)OC)c1ccc(Cl)cc1Cl)[N+](=O)[O-]` (stereo unspecified) the melting point was 234 to 237 °C. In the case of `CC(=O)NCC1CN(c2ccc(N3CCN(c4ncc([N+](=O)[O-])s4)CC3)c(F)c2)C(=O)O1` (stereo unspecified), the melting point is reported as 202 to 203 °C. In the case of `CC(C)(C)OC(=O)NCC1CCN(CC2(C(=O)O)CCCC2)CC1`, the melting point is reported as 150 °C. In the case of `Cc1ccc(-c2csc(NC(=O)Nc3nc(-c4ccc(C)cc4)cs3)n2)cc1`, the melting point is reported as > 300 °C. In the case of `Cc1cccc(NC(=O)c2cc(C#N)cc(C)n2)n1`, the melting point is reported as 244 °C. Work on `Cc1ccccc1OCCN1CCC(CNc2nc3ccccc3s2)CC1` yielded a melting point of 126 °C. `CCOC(=O)C(C)Oc1ccc(Oc2nc3ccc(Cl)nc3s2)cc1` (stereo unspecified) showed a melting point of 60 to 62 °C. With `CN1Cc2c(I)ncn2-c2ccc(F)cc2C1=O` the melting point was 187 to 188 °C. `O=Cc1ccc(OCCBr)c2ccccc12` gave a melting point of 83 to 84 °C. Compound `CC1(C#N)CCc2cc(O)c(C(C)(C)C)cc2O1` (stereo unspecified) has a melting point of 153 to 155 °C. For `COc1cc(C=O)c(OC)c2ccccc12`, the melting point was 120 to 123 °C. In the case of `CCOC(=O)C1(C)C(=O)Nc2cc3[nH]c(-c4cnccn4)nc3cc21` (stereo unspecified), the melting point is reported as 288 to 290 °C.

Source: a melting point compilation (Tetko et al.; mined from patent text by program, amines drawn as free bases though some values may be those of a salt)
